In ChEMBL document CHEMBL2440099, “N-Alkyl dien- and trienamides from the roots of Otanthus maritimus with binding affinity for opioid and cannabinoid receptors” (Bioorg Med Chem, 2013) one finds Ratio Ki and Ki data, which are given here for 12 compounds.

By pKi is commonly meant −log10 of the Ki, conventionally taken in molar units. The low end stands for a high Ki, the high end for a low Ki.

pKi: −log10 of the molar value.

The species entered for experiment [1] is Mus musculus. In words: Selectivity ratio of Ki for cannabinoid CB1 receptor in CD1 mouse brain membranes to Ki for cannabinoid CB2 receptor in CD1 mouse spleen membranes. Format: cell membranes.
In experiment [2] the target is Delta-type opioid receptor (Mus musculus, UniProt P32300). In words: Displacement of [3H]DPDPE from delta opioid receptor in CD1 mouse brain membranes after 1 hr by liquid scintillation counting. Format: cell membranes, Membrane. (In general: Displacement assays read how much labelled ligand stays bound in the presence of the test substance.)
For another experiment, the target named is Mu-type opioid receptor (Mus musculus, UniProt P42866). Kind of experiment: Displacement of [3H]DAMGO from mu opioid receptor in CD1 mouse brain membranes after 1 hr by liquid scintillation counting. It counts as cell membranes, Membrane.
For the next experiment, the target named is Cannabinoid receptor 2 (Mus musculus, UniProt P47936). In words: Displacement of [3H]-CP-55940 from cannabinoid CB2 receptor in CD1 mouse spleen membranes after 1 hr by liquid scintillation counting. It counts as cell membranes, Membrane.
For experiment [3], the species on record is Mus musculus. Kind of experiment: Selectivity ratio of Ki for delta opioid receptor in CD1 mouse brain membranes to Ki for mu opioid receptor in CD1 mouse brain membranes. Format: cell membranes.
For the next experiment, the target named is Cannabinoid receptor 1 (Mus musculus, UniProt P47746). Kind of experiment: Displacement of [3H]-CP-55940 from cannabinoid CB1 receptor in CD1 mouse brain membranes after 1 hr by liquid scintillation counting. It counts as cell membranes, Membrane.

As for `CCCCC/C=C\CC/C=C/C=C/C(=O)NCC(C)C`, the Ratio Ki in the experiment filed under Mus musculus [1] is 2.18; in the experiment filed under Mus musculus [3] it was 1.03. The pKi was 5.11 in experiment [2], 5.12 on Mu-type opioid receptor, 6.26 at Cannabinoid receptor 2 and 5.92 on Cannabinoid receptor 1.
Regarding `CC(C)CC(=O)OC/C=C\CCNC(=O)/C=C/C=C/C=C/c1cccs1`, the Ratio Ki in the experiment listed under Mus musculus [1] is 0.55; in the experiment filed under Mus musculus [3], 0.27. Besides, the negative-log Ki (pKi) in experiment [2] is 4.96; on Mu-type opioid receptor it was 4.38; on Cannabinoid receptor 2, 4.99; at Cannabinoid receptor 1, 5.25.
Take `O=C(/C=C/C=C/C=C/c1cccs1)N1C=CCCC1`: the pKi was 4.94 in experiment [2], 4.54 on Mu-type opioid receptor, 4.87 on Cannabinoid receptor 2 and less than 4.30 on Cannabinoid receptor 1. Moreover, the Ratio Ki in the experiment listed under Mus musculus [3] was found to be 0.4.
Consider `CC(C)CNC(=O)/C=C/C=C/C=C/c1cccs1`, for which the Ratio Ki worked out at 1.07 in the experiment filed under Mus musculus [1] and 0.49 in the experiment filed under Mus musculus [3]. The negative-log Ki (pKi) in experiment [2] is 4.59; at Mu-type opioid receptor it was 4.28; on Cannabinoid receptor 2, 5.08; at Cannabinoid receptor 1 it was 5.06.
Regarding `COc1cc([C@@H]2Oc3c(OC)cc(/C=C/C=O)cc3[C@H]2COC(=O)CC(C)C)ccc1O`, the results for the Ratio Ki in the experiment listed under Mus musculus [1] and in the experiment listed under Mus musculus [3] were 0.64 and 0.42, respectively. Moreover, the pKi in experiment [2] is 5.42; on Mu-type opioid receptor it was 5.05; at Cannabinoid receptor 2 it was 5.38; at Cannabinoid receptor 1, 5.57.
`CCCCCCC/C=C/C=C/C(=O)NCC(C)C`: the Ratio Ki came to 2.89 in the experiment filed under Mus musculus [1] and 5.24 in the experiment filed under Mus musculus [3]. In addition, the pKi in experiment [2] was 4.37; at Mu-type opioid receptor it was 5.09; on Cannabinoid receptor 2, 6.05; at Cannabinoid receptor 1 it was 5.59.
`C=CC1OC1/C=C/C#CC#CC#CC` (centres undefined): the pKi (in experiment [2]; at Mu-type opioid receptor; on Cannabinoid receptor 2; at Cannabinoid receptor 1) was less than 4.30 each time.
For `CCCCCCCCC/C=C/C=C/C(=O)NCC(C)C`, the Ratio Ki was 1.2 in the experiment listed under Mus musculus [1] and 0.44 in the experiment listed under Mus musculus [3]. Further, the pKi was 4.65 in experiment [2], 4.29 on Mu-type opioid receptor, 5.93 on Cannabinoid receptor 2 and 5.85 on Cannabinoid receptor 1.
`CC(C)CCNC(=O)/C=C/C=C/C=C/c1cccs1`: the Ratio Ki in the experiment listed under Mus musculus [1] came out at 0.44; in the experiment listed under Mus musculus [3] it was 3.27. In addition, the negative logarithm of the Ki (pKi) in experiment [2] is 4.58; on Mu-type opioid receptor, 5.09; on Cannabinoid receptor 2, 5.30; at Cannabinoid receptor 1 it was 5.66.
For the compound `CCCCC/C=C\CC/C=C/C=C/C(=O)N1CCCCC1`, the Ratio Ki in the experiment filed under Mus musculus [1] was determined as 5; in the experiment listed under Mus musculus [3] it was 0.51. The pKi in experiment [2] is 5.42; on Mu-type opioid receptor, 5.13; on Cannabinoid receptor 2, 6.80; on Cannabinoid receptor 1, 6.10.
Take `O=C(/C=C/C=C/C=C/c1cccs1)N1CCCCC1`: the Ratio Ki in the experiment listed under Mus musculus [1] came out at 3.3; in the experiment filed under Mus musculus [3], 0.63. The pKi is 5.10 in experiment [2], 4.89 on Mu-type opioid receptor, 5.91 at Cannabinoid receptor 2 and 5.39 on Cannabinoid receptor 1.
On to `CCCCCCCCC/C=C/C=C/C(=O)N1CCCCC1`, for which the Ratio Ki was 0.28 in the experiment listed under Mus musculus [1] and 1.13 in the experiment filed under Mus musculus [3]. Moreover, the negative-log Ki (pKi) in experiment [2] was 5.19; on Mu-type opioid receptor it was 5.24; on Cannabinoid receptor 2, 4.62; on Cannabinoid receptor 1, 5.17.
